From US7902197B2, “Pyrrolopyrazine kinase inhibitors” (Roche Palo Alto LLC, priority 2008, dated 2011)

How the values were obtained:
[1] = target: JAK3: Recombinant human kinase domain (Homo sapiens, UniProt P52333); experiment: Determination of IC50 of Janus Kinase (JAK) inhibition, radioactive end-point 33P-ATP assay, JAK3; format: biochemical; details: 0.5 nM or 0.2 nM JAK3, ATP 1.5 uM, peptide 50 uM, 20 minutes; read-out: IC50 h-jak3-sf21-c
From the text: (§1) Determination of IC50 of Janus Kinase (JAK) Inhibition: […]

[2] = target: JAK2: Recombinant human kinase domain (Homo sapiens, UniProt O60674); experiment: Determination of IC50 of Janus Kinase (JAK) inhibition, radioactive end-point 33P-ATP assay, JAK2; format: biochemical; details: 1 nM JAK2, ATP 1.5 uM, peptide 50 uM, 20 minutes; read-out: IC50 h-jak2-sf21-c
Sequence of JAK2: Recombinant human kinase domain (O60674 849-1124 limits assumed): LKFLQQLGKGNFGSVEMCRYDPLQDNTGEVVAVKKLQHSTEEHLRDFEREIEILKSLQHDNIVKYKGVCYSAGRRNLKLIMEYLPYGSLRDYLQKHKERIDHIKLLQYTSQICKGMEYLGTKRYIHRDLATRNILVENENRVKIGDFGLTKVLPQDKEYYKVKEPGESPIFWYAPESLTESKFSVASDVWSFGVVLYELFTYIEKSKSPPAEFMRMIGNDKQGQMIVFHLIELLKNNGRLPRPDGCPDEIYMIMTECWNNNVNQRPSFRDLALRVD
From the text: as §1

Sequence of JAK3: Recombinant human kinase domain (P52333 822-1111 limits assumed): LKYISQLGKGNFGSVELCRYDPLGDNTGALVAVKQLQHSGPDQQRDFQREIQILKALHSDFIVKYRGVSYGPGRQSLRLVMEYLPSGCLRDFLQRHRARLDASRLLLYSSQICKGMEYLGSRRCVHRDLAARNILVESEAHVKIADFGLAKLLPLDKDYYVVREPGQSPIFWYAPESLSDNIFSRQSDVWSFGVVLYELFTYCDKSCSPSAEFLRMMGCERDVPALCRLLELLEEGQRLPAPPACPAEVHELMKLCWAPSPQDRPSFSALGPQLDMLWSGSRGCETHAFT

SMILES | melting point | IC50 [1] | IC50 [2]
CC(C)(C)C(=O)c1c[nH]c2ncc(C(=O)NC3CCCC3)nc12 [Compound I-15, 7-(2,2-Dimethyl-propionyl)-5H-pyrrolo[2,3-b]pyrazine-2-carboxylic acid cyclopentylamide] | 237.9 to 241.5 °C | – | –
CC(C)(C)C(=O)c1cnc2[nH]cc(C(=O)C(C)(C)C)c2n1 [Compound I-2, 1-[7-(2,2-Dimethyl-propionyl)-5H-pyrrolo[2,3-b]pyrazin-2-yl]-2,2-dimethyl-propan-1-one] | 188 to 198 °C | – | –
CN1CCN(c2ccc(Nc3cnc4[nH]cc(C(=O)C(C)(C)C)c4n3)cc2)CC1 [Compound I-34, 2,2-Dimethyl-1-{2-[4-(4-methyl-piperazin-1-yl)-phenylamino]-5H-pyrrolo[2,3-b]pyrazin-7-yl}-propan-1-one] | – | 471 nM | –
CN1CCN(c2cccc(Nc3cnc4[nH]cc(C(=O)C(C)(C)C)c4n3)c2)CC1 [Compound I-35, 2,2-Dimethyl-1-{2-[3-(4-methyl-piperazin-1-yl)-phenylamino]-5H-pyrrolo[2,3-b]pyrazin-7-yl}-propan-1-one] | – | 498 nM | –
CC(C)NC(=O)c1c[nH]c2ncc(N(C)C3CCCC3)nc12 [Compound I-1, 2-(Cyclopentyl-methyl-amino)-5H-pyrrolo[2,3-b]pyrazine-7-carboxylic acid isopropylamide] | 277 to 278 °C | 59.2 nM | 129 nM
